Source: patent US9512107B2, “Therapeutically active compositions and their methods of use” (Agios Pharmaceuticals, Inc., priority 2012, dated 2016)
Changes are numbered by the printed parent chain.

How the values were obtained:
[1] = test system: U87MG pLVX-IDH2 R140Q-neo cells; assay: U87MG pLVX-IDH2 R140Q-neo cell based assay, 2-HG in media by LC-MS at 48 hours; settings: Homo sapiens, U-87 MG
Outline: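 2-HG secreted into the medium was measured by LC-MS after 48 h of compound treatment (0.2% DMSO final) of U87MG pLVX-IDH2 R140Q-neo cells in DMEM/10% FBS. The same wells were assayed at 72 h by CellTiter-Glo luminescence for effects on growth.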

IDH2 R140Q = target: T1, IDH2 R140Q (Homo sapiens, UniProt P48735, R140Q); assay: IDH2 R140Q enzymatic assay (cofactor depletion, similar format); format: biochemical; settings: read-out: Enz R140Q
T1 sequence (P48735 40-452 R140Q): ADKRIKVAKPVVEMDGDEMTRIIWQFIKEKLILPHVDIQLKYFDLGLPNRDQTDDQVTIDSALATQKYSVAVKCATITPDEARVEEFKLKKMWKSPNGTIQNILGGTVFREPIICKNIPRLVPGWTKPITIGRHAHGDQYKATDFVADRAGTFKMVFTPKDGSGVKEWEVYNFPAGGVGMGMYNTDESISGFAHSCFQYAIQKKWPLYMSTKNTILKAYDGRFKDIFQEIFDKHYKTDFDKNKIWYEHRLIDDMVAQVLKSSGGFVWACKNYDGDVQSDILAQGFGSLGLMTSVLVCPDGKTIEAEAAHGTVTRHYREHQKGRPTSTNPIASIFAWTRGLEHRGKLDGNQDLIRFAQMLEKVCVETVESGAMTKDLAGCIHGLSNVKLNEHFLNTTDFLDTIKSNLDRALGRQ

IDH2 R172K = target: T2, IDH2 R172K (Homo sapiens, UniProt P48735, R172K); assay: IDH2 R172K enzymatic assay (NADPH cofactor depletion, diaphorase/resazurin readout); format: biochemical; settings: read-out: Enz R172K
T2 sequence (P48735 40-452 R172K): T1 sequence (P48735 40-452 R140Q) with Q101R, R133K
Outline: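 Residual NADPH is read out as resorufin fluorescence after quenching with 36 μg/ml diaphorase and 60 μM resazurin in stop mix. The stop follows a 1 h room-temperature reaction started by a substrate mix of NADPH (50 μM) and α-KG (6.3 mM), with compound preincubated with enzyme for 1 h beforehand.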

IC50 [1] [nM] | IC50 (IDH2 R140Q) [nM] | IC50 (IDH2 R172K) [nM] | Structure (SMILES)
< 100 | 100 to 1000 | 100 to 1000 | CC(C)CNc1nc(Nc2cccc(S(C)(=O)=O)c2)nc(-c2cccc(C(F)(F)F)n2)n1 [Compound 571, N2-isobutyl-N4-(3-(methylsulfonyl)phenyl)-6-(6-(trifluoromethyl)pyridin-2-yl)-1,3,5-triazine-2,4-diamine]
< 100 | 100 to 1000 | 100 to 1000 | CC(C)Nc1nc(Nc2ccnc(Cl)c2)nc(-c2cccc(C(F)(F)F)n2)n1 [Compound 572, N2-(2-chloropyridin-4-yl)-N4-isopropyl-6-(6-(trifluoromethyl)pyridin-2-yl)-1,3,5-triazine-2,4-diamine]
< 100 | 100 to 1000 | < 100 | CCC(=O)c1cc(Nc2nc(NC(C)C)nc(-c3cccc(C(F)(F)F)n3)n2)ccn1 [Compound 574, 1-{4-[4-Isopropylamino-6-(6-trifluoromethyl-pyridin-2-yl)-[1,3,5]triazin-2-ylamino]-pyridin-2-yl}-propan-1-one]
< 100 | 100 to 1000 | 100 to 1000 | CC(C)Nc1nc(Nc2ccnc(C(C)(F)F)c2)nc(-c2cccc(C(C)(F)F)n2)n1 [Compound 576, 6-[6-(1,1-Difluoro-ethyl)-pyridin-2-yl]-N-[2-(1,1-difluoro-ethyl)-pyridin-4-yl]-N′-isopropyl-[1,3,5]triazine-2,4-diamine]
< 100 | 1000 to 10000 | 100 to 1000 | COC(=O)N1CCC(Nc2nc(Nc3ccnc(C(F)(F)F)c3)nc(-c3cccc(C(F)(F)F)n3)n2)CC1 [Compound 577, 4-[4-(6-Trifluoromethyl-pyridin-2-yl)-6-(2-trifluoromethyl-pyridin-4-ylamino)-[1,3,5]triazin-2-ylamino]-piperidine-1-carboxylic acid methyl ester]
< 100 | 100 to 1000 | < 100 | CC(C)Nc1nc(Nc2ccnc(C3(C)CC3)c2)nc(-c2cccc(C(F)(F)F)n2)n1 [Compound 581, N-Isopropyl-N′-[2-(1-methyl-cyclopropyl)-pyridin-4-yl]-6-(6-trifluoromethyl-pyridin-2-yl)-[1,3,5]triazine-2,4-diamine]
< 100 | 100 to 1000 | < 100 | CC(C)Nc1nc(Nc2ccnc(C(F)(F)F)c2)nc(-c2cccc(C(C)(F)F)n2)n1 [Compound 582, 6-[6-(1,1-Difluoro-ethyl)-pyridin-2-yl]-N-isopropyl-N′-(2-trifluoromethyl-pyridin-4-yl)-[1,3,5]triazine-2,4-diamine]
< 100 | 100 to 1000 | < 100 | CC(C)Nc1nc(Nc2cc(F)cc(F)c2)nc(-c2cccc(C(C)(F)F)n2)n1 [Compound 583, 6-(6-(1,1-difluoroethyl)pyridin-2-yl)-N2-(3,5-difluorophenyl)-N4-isopropyl-1,3,5-triazine-2,4-diamine]
< 100 | 100 to 1000 | < 100 | CC(F)(F)c1cccc(-c2nc(NCC3CC3)nc(Nc3cc(F)cc(F)c3)n2)n1 [Compound 584, N2-(cyclopropylmethyl)-6-(6-(1,1-difluoroethyl)pyridin-2-yl)-N4-(3,5-difluorophenyl)-1,3,5-triazine-2,4-diamine]
< 100 | 100 to 1000 | < 100 | CC(C)(C)Nc1nc(Nc2cc(F)cc(F)c2)nc(-c2cccc(C(C)(F)F)n2)n1 [Compound 585, N2-(tert-butyl)-6-(6-(1,1-difluoroethyl)pyridin-2-yl)-N4-(3,5-difluorophenyl)-1,3,5-triazine-2,4-diamine]
< 100 | 100 to 1000 | < 100 | FC(F)(F)c1cc(Nc2nc(NC3CCOCC3)nc(-c3cccc(C(F)(F)F)n3)n2)ccn1 [Compound 587, N2-(tetrahydro-2H-pyran-4-yl)-6-(6-(trifluoromethyl)pyridin-2-yl)-N4-(2-(trifluoromethyl)pyridin-4-yl)-1,3,5-triazine-2,4-diamine]
< 100 | 100 to 1000 | 100 to 1000 | OC1CCCC1Nc1nc(Nc2ccnc(C(F)(F)F)c2)nc(-c2cccc(C(F)(F)F)n2)n1 (stereo not drawn) [Compound 588, 2-((4-(6-(trifluoromethyl)pyridin-2-yl)-6-((2-(trifluoromethyl)pyridin-4-yl)amino)-1,3,5-triazin-2-yl)amino)cyclopentanol]
< 100 | 100 to 1000 | 100 to 1000 | CC(C)(C)Nc1nc(Nc2cc(F)cc(S(C)(=O)=O)c2)nc(-c2cccc(C(F)(F)F)n2)n1 [Compound 592, N-tert-Butyl-N′-(3-fluoro-5-methanesulfonyl-phenyl)-6-(6-trifluoromethyl-pyridin-2-yl)-[1,3,5]triazine-2,4-diamine]
< 100 | 100 to 1000 | < 100 | CS(=O)(=O)c1cc(F)cc(Nc2nc(NCC3CC3)nc(-c3cccc(C(F)(F)F)n3)n2)c1 [Compound 593, N-Cyclopropylmethyl-N′-(3-fluoro-5-methanesulfonyl-phenyl)-6-(6-trifluoromethyl-pyridin-2-yl)-[1,3,5]triazine-2,4-diamine]
< 100 | 100 to 1000 | 100 to 1000 | CC(C)(O)CNc1nc(Nc2ccnc(C(F)(F)F)c2)nc(-c2cccc(C(C)(F)F)n2)n1 [Compound 594, 1-((4-(6-(1,1-difluoroethyl)pyridin-2-yl)-6-((2-(trifluoromethyl)pyridin-4-yl)amino)-1,3,5-triazin-2-yl)amino)-2-methylpropan-2-ol]
< 100 | 100 to 1000 | < 100 | CC(F)(F)c1cccc(-c2nc(NCC3CC3)nc(Nc3ccnc(C(F)(F)F)c3)n2)n1 [Compound 595, N2-(cyclopropylmethyl)-6-(6-(1,1-difluoroethyl)pyridin-2-yl)-N4-(2-(trifluoromethyl)pyridin-4-yl)-1,3,5-triazine-2,4-diamine]
< 100 | 100 to 1000 | < 100 | CC(C)(C)Nc1nc(Nc2ccnc(C(C)(F)F)c2)nc(-c2cccc(C(C)(F)F)n2)n1 [Compound 596, N2-(tert-butyl)-6-(6-(1,1-difluoroethyl)pyridin-2-yl)-N4-(2-(1,1-difluoroethyl)pyridin-4-yl)-1,3,5-triazine-2,4-diamine]
< 100 | 100 to 1000 | < 100 | FC(F)(F)c1cc(Nc2nc(NCC3CC3)nc(-c3cccc(C(F)(F)F)n3)n2)ccn1 [Compound 597, N2-(cyclopropylmethyl)-6-(6-(trifluoromethyl)pyridin-2-yl)-N4-(2-(trifluoromethyl)pyridin-4-yl)-1,3,5-triazine-2,4-diamine]
< 100 | 100 to 1000 | < 100 | Fc1cc(F)cc(Nc2nc(NCC3CC3)nc(-c3cccc(C(F)(F)F)n3)n2)c1 [Compound 598, N2-(cyclopropylmethyl)-N4-(3,5-difluorophenyl)-6-(6-(trifluoromethyl)pyridin-2-yl)-1,3,5-triazine-2,4-diamine]
< 100 | 100 to 1000 | < 100 | CS(=O)(=O)c1cc(Cl)cc(Nc2nc(NCC3CC3)nc(-c3cccc(C(F)(F)F)n3)n2)c1 [Compound 599, N2-(3-chloro-5-(methylsulfonyl)phenyl)-N4-(cyclopropylmethyl)-6-(6-(trifluoromethyl)pyridin-2-yl)-1,3,5-triazine-2,4-diamine]
< 100 | 100 to 1000 | < 100 | CC(C)(C)Nc1nc(Nc2cc(Cl)cc(S(C)(=O)=O)c2)nc(-c2cccc(C(F)(F)F)n2)n1 [Compound 600, N2-(tert-butyl)-N4-(3-chloro-5-(methylsulfonyl)phenyl)-6-(6-(trifluoromethyl)pyridin-2-yl)-1,3,5-triazine-2,4-diamine]
< 100 | 100 to 1000 | < 100 | CC(C)(C)Nc1nc(Nc2cc(F)cc(F)c2)nc(-c2cccc(C(F)(F)F)n2)n1 [Compound 601, N2-(tert-butyl)-N4-(3,5-difluorophenyl)-6-(6-(trifluoromethyl)pyridin-2-yl)-1,3,5-triazine-2,4-diamine]
< 100 | 100 to 1000 | < 100 | CC(C)(C)Nc1nc(Nc2ccnc(C(F)(F)F)c2)nc(-c2cccc(C(F)(F)F)n2)n1 [Compound 602, N2-(tert-butyl)-6-(6-(trifluoromethyl)pyridin-2-yl)-N4-(2-(trifluoromethyl)pyridin-4-yl)-1,3,5-triazine-2,4-diamine]
